Measurements as given in patent US20250177291A1, “HYPOTONIC GEL-FORMING FORMULATIONS WITH ENHANCED RHEOLOGICAL PROPERTIES” (The Johns Hopkins University, priority 2021, published 2025).

Assay: Rheology: max tack force and adhesion of 16% F127 gels with additives
Format: physicochemical
Settings: 0.2-1% glycerin added to 16% w/v F127, 37° C., vs no additive
Experimental: An Anton Paar cone and plate rheometer (model MCR 302) with PP25 probe were used to measure the max tack force and the adhesion. The probe was placed in contact with the sample, and then moved at a controlled rate vertically away from the sample to measure the normal force. The peak force on the curve is considered the max tack force, while the adhesion is the area under the force curve. Samples (200 μL) were transferred to the rheometer sample holder using a Drummond Wiretrol 200 μL wire plunger pipette. The samples were equilibrated between the probe and sample holder with a 1 mm gap for 60 s at the specified temperature. A total of 100 points were measured at 60 s intervals with ramp linear mode (initial was set as −0.005 mm/s and the final was set as −0.5 mm/s). If not specified, n=3-6 per each sample group were measured and each sample were prepared individually. The final data was exported from the Antron Parr RheoCompass. The max tack force and the adhesion were calculated with GraphPad Prism 9. For the temperature ramp viscosity experiment, the loading gap was set to 0.3 mm. […] The raw data with temperature (° C.) and viscosity (mPa*s) measurements were exported from the Anton Parr RheoCompass software and analyzed/plotted with GraphPad Prism 9. […]

adhesion of the F127 gels: no measurable effect | max tack force of the F127 gels: no measurable effect
Compound: OCC(O)CO [glycerin]
